Where two headings read alike, the source gives them in different places. Non-standard residues stand in square brackets, D forms with d. Residues, ends and D or L forms follow the SMILES beside them. βAla = NCCC(=O)O
Tested on: human red blood cells
Conditions: red cells of human

Row | Structure (SMILES) | IC50 (pH 5.5) | IC50 (pH 7.4)
1 | N=C(N)NCCC[C@H](NC(=O)[C@H](CCCNC(=N)N)NC(=O)[C@H](CCC(N)=O)NC(=O)[C@H](CCCNC(=N)N)NC(=O)[C@H](CCCNC(=N)N)NC(=O)[C@H](CCCCN)NC(=O)[C@H](CCCCN)NC(=O)[C@H](CCCNC(=N)N)NC(=O)CNC(=O)[C@H](Cc1ccc(O)cc1)NC(=O)[C@@H](N)CS)C(N)=O [Peptide 1, reference compound] (H-CYGRKKRRQRR-NH2) | > 20 µM | > 20 µM
2 | CC[C@H](C)[C@H](NC(=O)[C@H](CCCCN)NC(=O)[C@@H](NC(=O)[C@H](CCC(N)=O)NC(=O)[C@H](CCCNC(=N)N)NC(=O)[C@@H](N)CS)[C@@H](C)CC)C(=O)N[C@@H](Cc1c[nH]c2ccccc12)C(=O)N[C@@H](Cc1ccccc1)C(=O)N[C@@H](CCC(N)=O)C(=O)N[C@@H](CC(N)=O)C(=O)N[C@@H](CCCNC(=N)N)C(=O)N[C@@H](CCCNC(=N)N)C(=O)N[C@@H](CCSC)C(=O)N[C@@H](CCCCN)C(=O)N[C@@H](Cc1c[nH]c2ccccc12)C(=O)N[C@@H](CCCCN)C(=O)N[C@@H](CCCCN)C(N)=O [Peptide 2, reference compound] | > 20 µM | > 20 µM
3 | CC[C@H](C)[C@H](NC(=O)[C@H](C)NC(=O)[C@H](CCC(=O)O)NC(=O)[C@H](Cc1ccccc1)NC(=O)[C@H](CC(C)C)NC(=O)CNC(=O)[C@@H](N)CS)C(=O)N[C@@H](C)C(=O)NCC(=O)N[C@@H](Cc1ccccc1)C(=O)N[C@H](C(=O)N[C@@H](CCC(=O)O)C(=O)N[C@@H](CC(N)=O)C(=O)NCC(=O)N[C@@H](Cc1c[nH]c2ccccc12)C(=O)N[C@@H](CCC(=O)O)C(=O)NCC(=O)N[C@@H](CCSC)C(=O)N[C@H](C(=O)N[C@@H](CC(=O)O)C(=O)NCC(=O)N[C@@H](Cc1c[nH]c2ccccc12)C(=O)N[C@@H](Cc1ccc(O)cc1)C(=O)NCC(N)=O)[C@@H](C)CC)[C@@H](C)CC [Peptide 3, reference compound] (H-CGLFEAIAGFIENGWEGMIDGWYG-NH2) | > 20 µM | > 20 µM
4 | CC[C@H](C)[C@H](NC(=O)[C@H](C)NC(=O)[C@H](CCC(=O)O)NC(=O)[C@H](Cc1ccccc1)NC(=O)[C@H](CC(C)C)NC(=O)CNC(=O)[C@@H](N)CS)C(=O)N[C@@H](CCC(=O)O)C(=O)NCC(=O)N[C@@H](Cc1ccccc1)C(=O)N[C@H](C(=O)N[C@@H](CCC(=O)O)C(=O)N[C@@H](CC(N)=O)C(=O)NCC(=O)N[C@@H](Cc1c[nH]c2ccccc12)C(=O)N[C@@H](CCC(=O)O)C(=O)NCC(=O)N[C@@H](CCSC)C(=O)N[C@H](C(=O)N[C@@H](CC(=O)O)C(=O)NCC(=O)N[C@@H](Cc1c[nH]c2ccccc12)C(=O)N[C@@H](Cc1ccc(O)cc1)C(=O)NCC(N)=O)[C@@H](C)CC)[C@@H](C)CC [Peptide 4, reference compound] | 16 µM | > 20 µM
5 | CC[C@H](C)[C@H](NC(=O)[C@H](C)NC(=O)[C@H](Cc1c[nH]cn1)NC(=O)[C@H](Cc1ccccc1)NC(=O)[C@H](CC(C)C)NC(=O)CNC(=O)[C@@H](N)CS)C(=O)N[C@@H](C)C(=O)N[C@@H](Cc1c[nH]cn1)C(=O)N[C@@H](Cc1ccccc1)C(=O)N[C@H](C(=O)N[C@@H](Cc1c[nH]cn1)C(=O)NCC(=O)NCC(=O)N[C@@H](Cc1c[nH]c2ccccc12)C(=O)N[C@@H](Cc1c[nH]cn1)C(=O)NCC(=O)N[C@@H](CC(C)C)C(=O)N[C@H](C(=O)N[C@@H](Cc1c[nH]cn1)C(=O)NCC(=O)N[C@@H](Cc1c[nH]c2ccccc12)C(=O)N[C@@H](Cc1ccc(O)cc1)C(=O)NCC(=O)N[C@@H](Cc1ccc(O)cc1)C(=O)NCC(=O)N[C@@H](CCCNC(=N)N)C(=O)N[C@@H](CCCCN)C(=O)N[C@@H](CCCCN)C(=O)N[C@@H](CCCNC(=N)N)C(=O)N[C@@H](CCCNC(=N)N)C(=O)N[C@@H](CCC(N)=O)C(=O)N[C@@H](CCCNC(=N)N)C(=O)N[C@@H](CCCNC(=N)N)C(N)=O)[C@@H](C)CC)[C@@H](C)CC [Peptide 7] (H-CGLFHAIAHFIHGGWHGLIHGWYGYGRKKRRQRR-NH2) | 5.9 µM | 0.3 µM
6 | CC[C@H](C)[C@H](NC(=O)[C@H](C)NC(=O)[C@H](CCC(=O)O)NC(=O)[C@H](Cc1ccccc1)NC(=O)[C@H](CC(C)C)NC(=O)CNC(=O)[C@@H](N)CS)C(=O)N[C@@H](CCC(=O)O)C(=O)NCC(=O)N[C@@H](Cc1ccccc1)C(=O)N[C@H](C(=O)N[C@@H](CCC(=O)O)C(=O)N[C@@H](CC(N)=O)C(=O)NCC(=O)N[C@@H](Cc1c[nH]c2ccccc12)C(=O)N[C@@H](CCC(=O)O)C(=O)NCC(=O)N[C@@H](CC(C)C)C(=O)N[C@H](C(=O)N[C@@H](CC(=O)O)C(=O)NCC(=O)N[C@@H](Cc1c[nH]c2ccccc12)C(=O)N[C@@H](Cc1ccc(O)cc1)C(=O)NCC(=O)N[C@@H](Cc1ccc(O)cc1)C(=O)NCC(=O)N[C@@H](CCCNC(=N)N)C(=O)N[C@@H](CCCCN)C(=O)N[C@@H](CCCCN)C(=O)N[C@@H](CCCNC(=N)N)C(=O)N[C@@H](CCCNC(=N)N)C(=O)N[C@@H](CCC(N)=O)C(=O)N[C@@H](CCCNC(=N)N)C(=O)N[C@@H](CCCNC(=N)N)C(N)=O)[C@@H](C)CC)[C@@H](C)CC [Peptide 28g] | 0.71 µM | 2.9 µM
7 | CC[C@H](C)[C@H](NC(=O)[C@H](C)NC(=O)[C@H](CCC(=O)O)NC(=O)[C@H](Cc1ccccc1)NC(=O)[C@H](CC(C)C)NC(=O)CNC(=O)[C@@H](N)CS)C(=O)N[C@@H](CCC(=O)O)C(=O)NCC(=O)N[C@@H](Cc1ccccc1)C(=O)N[C@H](C(=O)N[C@@H](CCC(=O)O)C(=O)N[C@@H](CC(N)=O)C(=O)NCC(=O)N[C@@H](Cc1c[nH]c2ccccc12)C(=O)N[C@@H](CCC(=O)O)C(=O)NCC(=O)N[C@@H](CCSC)C(=O)N[C@H](C(=O)N[C@@H](CC(=O)O)C(=O)NCC(=O)NCC(=O)NCC(=O)NCC(=O)N[C@@H](Cc1ccc(O)cc1)C(=O)NCC(=O)N[C@@H](CCCNC(=N)N)C(=O)N[C@@H](CCCCN)C(=O)N[C@@H](CCCCN)C(=O)N[C@@H](CCCNC(=N)N)C(=O)N[C@@H](CCCNC(=N)N)C(=O)N[C@@H](CCC(N)=O)C(=O)N[C@@H](CCCNC(=N)N)C(=O)N[C@@H](CCCNC(=N)N)C(N)=O)[C@@H](C)CC)[C@@H](C)CC [Peptide 32b] (H-CGLFEAIEGFIENGWEGMIDGGGGYGRKKRRQRR-NH2) | > 10 µM | > 10 µM
8 | CC[C@H](C)[C@H](NC(=O)[C@H](C)NC(=O)[C@H](CCC(=O)O)NC(=O)[C@H](C)NC(=O)[C@H](CC(C)C)NC(=O)CNC(=O)[C@@H](N)CS)C(=O)N[C@@H](CCC(=O)O)C(=O)NCC(=O)N[C@@H](Cc1ccccc1)C(=O)N[C@H](C(=O)N[C@@H](CCC(=O)O)C(=O)N[C@@H](CC(N)=O)C(=O)NCC(=O)N[C@@H](CC(C)C)C(=O)N[C@@H](CCCCN)C(=O)NCC(=O)N[C@@H](CC(C)C)C(=O)N[C@H](C(=O)N[C@@H](CC(=O)O)C(=O)N[C@@H](Cc1c[nH]c2ccccc12)C(=O)N[C@@H](Cc1c[nH]c2ccccc12)C(=O)N[C@@H](Cc1ccc(O)cc1)C(=O)NCC(=O)N[C@@H](Cc1ccc(O)cc1)C(=O)NCC(=O)N[C@@H](CCCNC(=N)N)C(=O)N[C@@H](CCCCN)C(=O)N[C@@H](CCCCN)C(=O)N[C@@H](CCCNC(=N)N)C(=O)N[C@@H](CCCNC(=N)N)C(=O)N[C@@H](CCC(N)=O)C(=O)N[C@@H](CCCNC(=N)N)C(=O)N[C@@H](CCCNC(=N)N)C(N)=O)[C@@H](C)CC)[C@@H](C)CC [Peptide 58] (H-CGLAEAIEGFIENGLKGLIDWWYGYGRKKRRQRR-NH2) | 0.06 µM | 2 µM
9 | CC[C@H](C)[C@H](NC(=O)[C@H](Cc1ccccc1)NC(=O)[C@H](CCC(=O)O)NC(=O)[C@H](CCC(=O)O)NC(=O)[C@@H](NC(=O)[C@H](Cc1ccccc1)NC(=O)[C@H](CCC(=O)O)NC(=O)[C@H](Cc1ccccc1)NC(=O)CNC(=O)CCNC(=O)[C@@H](N)CS)[C@@H](C)CC)C(=O)N[C@@H](CCC(=O)O)C(=O)N[C@@H](CC(N)=O)C(=O)NCC(=O)N[C@@H](CC(C)C)C(=O)N[C@@H](CCCCN)C(=O)N[C@@H](CC(N)=O)C(=O)N[C@@H](CC(C)C)C(=O)N[C@H](C(=O)N[C@@H](CC(=O)O)C(=O)N[C@@H](Cc1c[nH]c2ccccc12)C(=O)N[C@@H](Cc1c[nH]c2ccccc12)C(=O)N[C@@H](Cc1ccc(O)cc1)C(=O)NCC(=O)N[C@@H](Cc1ccc(O)cc1)C(=O)NCC(=O)N[C@@H](CCCNC(=N)N)C(=O)N[C@@H](CCCCN)C(=O)N[C@@H](CCCCN)C(=O)N[C@@H](CCCNC(=N)N)C(=O)N[C@@H](CCCNC(=N)N)C(=O)N[C@@H](CCC(N)=O)C(=O)N[C@@H](CCCNC(=N)N)C(=O)N[C@@H](CCCNC(=N)N)C(N)=O)[C@@H](C)CC [Peptide 60] (H-C[βAla]GFEFIEEFIENGLKNLIDWWYGYGRKKRRQRR-NH2) | 1.14 µM | 12.8 µM
10 | CC[C@H](C)[C@H](NC(=O)[C@H](CCC(=O)O)NC(=O)CNC(=O)[C@H](Cc1ccccc1)NC(=O)[C@H](CC(C)C)NC(=O)CNC(=O)[C@@H](N)CS)C(=O)N[C@@H](CCC(=O)O)C(=O)N[C@@H](CCC(=O)O)C(=O)N[C@@H](CC(C)C)C(=O)N[C@H](C(=O)N[C@@H](CCC(=O)O)C(=O)N[C@@H](CCC(=O)O)C(=O)NCC(=O)N[C@@H](CC(C)C)C(=O)N[C@@H](CCCCN)C(=O)N[C@@H](CC(N)=O)C(=O)N[C@@H](CC(C)C)C(=O)N[C@H](C(=O)N[C@@H](CC(=O)O)C(=O)N[C@@H](Cc1c[nH]c2ccccc12)C(=O)N[C@@H](Cc1c[nH]c2ccccc12)C(=O)N[C@@H](Cc1ccc(O)cc1)C(=O)NCC(=O)N[C@@H](Cc1ccc(O)cc1)C(=O)NCC(=O)N[C@@H](CCCNC(=N)N)C(=O)N[C@@H](CCCCN)C(=O)N[C@@H](CCCCN)C(=O)N[C@@H](CCCNC(=N)N)C(=O)N[C@@H](CCCNC(=N)N)C(=O)N[C@@H](CCC(N)=O)C(=O)N[C@@H](CCCNC(=N)N)C(=O)N[C@@H](CCCNC(=N)N)C(N)=O)[C@@H](C)CC)[C@@H](C)CC [Peptide 61] (H-CGLFGEIEELIEEGLKNLIDWWYGYGRKKRRQRR-NH2) | 0.97 µM | 8.07 µM

— PMC6600388 (2019)
